How the values were obtained:
Experiment in all cases: Weeding effect in post-emergence stage
Assay type in all cases: in vivo
Conditions in all cases: 250 g/ha; 2 leaf stage; 15 days after application; fresh weight control rate
[1] = test system: Setaria viridis
How it was run: (§1)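 Reported levels reflect fresh weight growth control rate banded 0 (<5%) through 5 (>85%), averaged over three repetitions. Treatment: foliar spray of 2-leaf-stage greenhouse plants at 15 to 500 g/ha, with 1.5 liter/ha methyl oleate synergist; assessment 15 days after application.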

[2] = test system: Digitaria sanguinalis
How it was run: as §1

[3] = test system: Amaranthus retroflexus
How it was run: as §1

[4] = test system: Echinochloa crusgali
How it was run: as §1

[5] = test system: Abutilon theophrasti
How it was run: as §1

Structure (SMILES) | weeding effect in post-emergence stage, activity level (growth control rate), Setaria viridis [1] | weeding effect in post-emergence stage, activity level (growth control rate), Digitaria sanguinalis [2] | weeding effect in post-emergence stage, activity level (growth control rate), Amaranthus retroflexus [3] | weeding effect in post-emergence stage, activity level (growth control rate), Echinochloa crusgali [4] | weeding effect in post-emergence stage, activity level (growth control rate), Abutilon theophrasti [5]
Cc1nnc(NC(=O)c2ccc(C(F)(F)F)c([S@+]([O-])CCOC(F)(F)F)c2F)o1 [Compound 165] | 5 (Level 5: growth control rate is above 85%) | 5 (Level 5: growth control rate is above 85%) | 5 (Level 5: growth control rate is above 85%) | 5 (Level 5: growth control rate is above 85%) | 5 (Level 5: growth control rate is above 85%)
CCC(C)C[S@@+]([O-])c1c(C(F)(F)F)ccc(C(=O)Nc2nnc(C)o2)c1F (some centres unmarked) [Compound 10] | 5 (Level 5: growth control rate is above 85%) | 5 (Level 5: growth control rate is above 85%) | 5 (Level 5: growth control rate is above 85%) | 5 (Level 5: growth control rate is above 85%) | 5 (Level 5: growth control rate is above 85%)
Cc1nnc(NC(=O)c2ccc(C(F)(F)F)c([S@+]([O-])CC(C)(C)C)c2F)o1 [Compound 11] | 5 (Level 5: growth control rate is above 85%) | 5 (Level 5: growth control rate is above 85%) | 5 (Level 5: growth control rate is above 85%) | 5 (Level 5: growth control rate is above 85%) | 5 (Level 5: growth control rate is above 85%)
COc1c(C(=O)Nc2nnc(C)o2)ccc(C(F)(F)F)c1[S@+]([O-])CCC(F)(C(F)(F)F)C(F)(F)F [Compound 331] | 5 (Level 5: growth control rate is above 85%) | 5 (Level 5: growth control rate is above 85%) | 5 (Level 5: growth control rate is above 85%) | 5 (Level 5: growth control rate is above 85%) | 5 (Level 5: growth control rate is above 85%)
CCC(=O)[S+]([O-])c1c(C(F)(F)F)ccc(C(=O)Nc2nnc(C)o2)c1F (centres unmarked) [Compound 167] | 5 (Level 5: growth control rate is above 85%) | 5 (Level 5: growth control rate is above 85%) | 5 (Level 5: growth control rate is above 85%) | 5 (Level 5: growth control rate is above 85%) | 5 (Level 5: growth control rate is above 85%)
COc1c(C(=O)Nc2nnc(C)o2)ccc(C(F)(F)F)c1[S@+]([O-])CCC(F)(F)F [Compound 325] | 5 (Level 5: growth control rate is above 85%) | 5 (Level 5: growth control rate is above 85%) | 5 (Level 5: growth control rate is above 85%) | 5 (Level 5: growth control rate is above 85%) | 5 (Level 5: growth control rate is above 85%)
Cc1nnc(NC(=O)c2ccc(C(F)(F)F)c([S@@+]([O-])C(=O)CC(F)(F)F)c2F)o1 [Compound 169] | 5 (Level 5: growth control rate is above 85%) | 5 (Level 5: growth control rate is above 85%) | 5 (Level 5: growth control rate is above 85%) | 5 (Level 5: growth control rate is above 85%) | 5 (Level 5: growth control rate is above 85%)
CSc1c(C(=O)Nc2nnc(C)o2)ccc(C(F)(F)F)c1[S@+]([O-])CCCC(F)(F)F [Compound 561] | 5 (Level 5: growth control rate is above 85%) | 5 (Level 5: growth control rate is above 85%) | 5 (Level 5: growth control rate is above 85%) | 5 (Level 5: growth control rate is above 85%) | 5 (Level 5: growth control rate is above 85%)
COc1c(C(=O)Nc2nnc(C)o2)ccc(C(F)(F)F)c1[S@@+]([O-])C(F)(F)C(F)(F)C(F)(F)F [Compound 328] | 5 (Level 5: growth control rate is above 85%) | 5 (Level 5: growth control rate is above 85%) | 5 (Level 5: growth control rate is above 85%) | 5 (Level 5: growth control rate is above 85%) | 5 (Level 5: growth control rate is above 85%)
CCC[S@@+]([O-])c1c(C(F)F)ccc(C(=O)Nc2nnnn2C)c1OC [Compound 866] | 5 (Level 5: growth control rate is above 85%) | 5 (Level 5: growth control rate is above 85%) | 5 (Level 5: growth control rate is above 85%) | 5 (Level 5: growth control rate is above 85%) | 5 (Level 5: growth control rate is above 85%)
COc1c(C(=O)Nc2nnc(C)o2)ccc(C(F)(F)F)c1[S@+]([O-])CCCF [Compound 320] | 5 (Level 5: growth control rate is above 85%) | 5 (Level 5: growth control rate is above 85%) | 5 (Level 5: growth control rate is above 85%) | 5 (Level 5: growth control rate is above 85%) | 5 (Level 5: growth control rate is above 85%)
COCC[S@@+]([O-])c1c(C(F)(F)F)ccc(C(=O)Nc2nnco2)c1F [Compound 582] | 5 (Level 5: growth control rate is above 85%) | 5 (Level 5: growth control rate is above 85%) | 5 (Level 5: growth control rate is above 85%) | 5 (Level 5: growth control rate is above 85%) | 5 (Level 5: growth control rate is above 85%)
CCC[S@@+]([O-])c1c(C(F)(F)F)ccc(C(=O)Nc2nnc(CC)o2)c1F [Compound 358] | 5 (Level 5: growth control rate is above 85%) | 5 (Level 5: growth control rate is above 85%) | 5 (Level 5: growth control rate is above 85%) | 5 (Level 5: growth control rate is above 85%) | 5 (Level 5: growth control rate is above 85%)
Cc1nnc(NC(=O)c2ccc(C(F)(F)F)c([S@+]([O-])CCOC(F)F)c2F)o1 [Compound 164] | 5 (Level 5: growth control rate is above 85%) | 5 (Level 5: growth control rate is above 85%) | 5 (Level 5: growth control rate is above 85%) | 5 (Level 5: growth control rate is above 85%) | 5 (Level 5: growth control rate is above 85%)
CCC[S@@+]([O-])c1c(C(F)(F)F)ccc(C(=O)Nc2nnc(C)o2)c1Cl [Compound 543] | 5 (Level 5: growth control rate is above 85%) | 5 (Level 5: growth control rate is above 85%) | 5 (Level 5: growth control rate is above 85%) | 5 (Level 5: growth control rate is above 85%) | 5 (Level 5: growth control rate is above 85%)
COC[S@+]([O-])c1c(C(F)(F)F)ccc(C(=O)Nc2nnc(C)o2)c1OC [Compound 342] | 5 (Level 5: growth control rate is above 85%) | 5 (Level 5: growth control rate is above 85%) | 5 (Level 5: growth control rate is above 85%) | 5 (Level 5: growth control rate is above 85%) | 5 (Level 5: growth control rate is above 85%)

From patent US12643871B2, “Aryl formamide compound containing chiral sulfur oxide or salt thereof, preparation method, herbicidal composition and use thereof” (Qingdao Kingagroot Chemical Compound Co., Ltd., priority 2019, dated 2026)
